This is an account of results in PubChem BioAssay AID248 (DTP/NCI, 2004).

This assay deals with L1210 leukemia ip in BDF1 mice, survival T/C. The assay is described as follows: NCI In Vivo Anticancer Drug Screen. Data for tumor model L1210 Leukemia (intraperitoneal) in B6D2F1 (BDF1) mice. The conditions noted are these: endpoint: mean survival time, higher = longer survival. Summed up: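 Value reflects the ratio of survival in compound-treated mice to survival in vehicle-treated controls, with both groups carrying the same transplanted tumor.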

Where “and” joins values, the source holds several entries; their conditions need not be identical. Identical values can stand only once. Toxic doses and inconclusive results are not listed. Numbered stars: 1 amine (or outer) side, 2 acyl side, 3 side chain; on linkers, the order of the positions; unused ones are H or OH. Bridge positions count the residues as written; N and C are the ends. Square brackets hold non-standard residues; d marks the D form. Peptide text beside a SMILES is read from it. I, II: the chains in the order shown. Actinocin(9to1) = Cc1c2oc3c(C)ccc(C(=O)[*:1])c3nc-2c(C(=O)[*:2])c(N)c1=O; NMeV = CN[CH](C(=O)O)C(C)C; Sar = CNCC(=O)O

As for `CCCC(=O)Nc1cccc2ccccc12`, the T/C is, setting by setting: (dose: 100.0 mg/kg/injection, schedule: Q04DX002 (ip), vehicle: Klucel (hydroxypropylcellulose) (HPC)) 117 % of control; (dose: 200.0 mg/kg/injection, schedule: Q04DX002 (ip), vehicle: Klucel (hydroxypropylcellulose) (HPC)) 107 % of control.
Turning to `CSCCCN`, the T/C is, setting by setting: (dose: 100.0 mg/kg/injection, schedule: Q01DX009 (ip), vehicle: saline) 99 % of control; (dose: 100.0 mg/kg/injection, schedule: Q04DX003 (ip), vehicle: saline) 102 % of control; (dose: 200.0 mg/kg/injection, schedule: Q01DX009 (ip), vehicle: saline) 95 % of control; (dose: 200.0 mg/kg/injection, schedule: Q04DX003 (ip), vehicle: saline) 104 % of control; (dose: 400.0 mg/kg/injection, schedule: Q01DX009 (ip), vehicle: saline) 95 % of control; (dose: 400.0 mg/kg/injection, schedule: Q04DX003 (ip), vehicle: saline) 96 % of control.
On to `Cc1c2oc3c(C)ccc(C(=O)NC4C(=O)NC(C(C)C)C(=O)N5CCCC5C(=O)N(C)CC(=O)N(C)C(C(C)C)C(=O)OC4C)c3nc-2c(C(=O)NC2C(=O)NC(C(C)C)C(=O)N3CCCC3C(=O)N(C)CC(=O)N(C)C(C(C)C)C(=O)OC2C)c(N)c1=O` (stereo not given) (I: TVP[Sar][NMeV] / II: TVP[Sar][NMeV]; ester I:1-I:C, II:1-II:C; linker I:N-II:N via Actinocin(9to1); configuration not given here), for which the T/C is 117 % of control (dose: 0.05 mg/kg/injection, schedule: Q01DX009 (ip), vehicle: water); 106 % of control (dose: 0.1 mg/kg/injection, schedule: Q01DX009 (ip), vehicle: water); 120 % of control (dose: 0.2 mg/kg/injection, schedule: Q01DX009 (ip), vehicle: water); 124 % of control (dose: 0.3 mg/kg/injection, schedule: Q04DX003 (ip), vehicle: water); 93 % of control (dose: 0.4 mg/kg/injection, schedule: Q01DX009 (ip), vehicle: water); 110 % of control (dose: 1.2 mg/kg/injection, schedule: Q04DX003 (ip), vehicle: water). The T/C (dose: 1.8 mg/kg/injection, schedule: Q04DX003 (ip), vehicle: water) was 91 % of control.
For the molecule `C1COCOC1`, the T/C runs as follows: (dose: 50.0 mg/kg/injection, schedule: Q01DX009 (ip), vehicle: acetone) 109 % of control; (dose: 100.0 mg/kg/injection, schedule: Q01DX009 (ip), vehicle: acetone) 106 % of control; (dose: 200.0 mg/kg/injection, schedule: Q01DX009 (ip), vehicle: acetone) 119 % of control.
Consider `CCC1CN2CCc3cc(OC)c(OC)cc3C2CC1CC1c2cc(OC)c(OC)cc2CCN1C(=O)C(Cc1c[nH]c2ccccc12)NC(=O)OC(C)(C)C` (stereo not given), for which the T/C reads like this: (dose: 4.0 mg/kg/injection, schedule: Q03HX008 (ip), vehicle: saline with Tween-80) 100 % of control; (dose: 4.0 mg/kg/injection, schedule: Q03HX016 (ip), vehicle: saline with Tween-80) 93 % of control; (dose: 4.0 mg/kg/injection, schedule: Q03HX024 (ip), vehicle: saline with Tween-80) 101 % of control; (dose: 8.0 mg/kg/injection, schedule: Q03HX008 (ip), vehicle: saline with Tween-80) 105 % of control; (dose: 8.0 mg/kg/injection, schedule: Q03HX016 (ip), vehicle: saline with Tween-80) 101 % of control; (dose: 8.0 mg/kg/injection, schedule: Q03HX024 (ip), vehicle: saline with Tween-80) 98 % of control. Further, the T/C was 112 % of control (dose: 16.0 mg/kg/injection, schedule: Q01DX009 (oral), vehicle: saline with Tween-80); 101 % of control (dose: 16.0 mg/kg/injection, schedule: Q03HX008 (ip), vehicle: saline with Tween-80); 100 % of control (dose: 16.0 mg/kg/injection, schedule: Q03HX016 (ip), vehicle: saline with Tween-80); 97 % of control (dose: 16.0 mg/kg/injection, schedule: Q03HX024 (ip), vehicle: saline with Tween-80); 95 % of control (dose: 32.0 mg/kg/injection, schedule: Q01DX005 (ip), vehicle: saline with Tween-80); 104 % of control (dose: 32.0 mg/kg/injection, schedule: Q01DX009 (ip), vehicle: saline with Tween-80). Further, the T/C runs as follows: (dose: 32.0 mg/kg/injection, schedule: Q01DX009 (oral), vehicle: saline with Tween-80) 114 % of control; (dose: 32.0 mg/kg/injection, schedule: Q03HX008 (ip), vehicle: saline with Tween-80) 92 % of control; (dose: 32.0 mg/kg/injection, schedule: Q03HX016 (ip), vehicle: saline with Tween-80) 97 % of control; (dose: 32.0 mg/kg/injection, schedule: Q03HX024 (ip), vehicle: saline with Tween-80) 98 % of control; (dose: 32.0 mg/kg/injection, schedule: Q04DX003 (ip), vehicle: saline with Tween-80) 162 % of control; (dose: 37.5 mg/kg/injection, schedule: Q01DX009 (ip), vehicle: saline) 95 % of control. The T/C (dose: 64.0 mg/kg/injection, schedule: Q01DX001 (ip), vehicle: saline with Tween-80) is 100 % of control; the T/C (dose: 64.0 mg/kg/injection, schedule: Q01DX005 (ip), vehicle: saline with Tween-80) is 102 % of control; the T/C (dose: 64.0 mg/kg/injection, schedule: Q01DX009 (ip), vehicle: saline with Tween-80) was 100 % of control; the T/C (dose: 64.0 mg/kg/injection, schedule: Q01DX009 (oral), vehicle: saline with Tween-80) is 114 % of control; the T/C (dose: 64.0 mg/kg/injection, schedule: Q04DX003 (ip), vehicle: saline with Tween-80) is 97 % of control; the T/C (dose: 64.0 mg/kg/injection, schedule: Q08DX002 (ip), vehicle: saline with Tween-80) is 98 % of control. The T/C (dose: 75.0 mg/kg/injection, schedule: Q01DX009 (ip), vehicle: saline) is 103 % of control; the T/C (dose: 89.0 mg/kg/injection, schedule: Q01DX001 (ip), vehicle: saline) was 115 % of control; the T/C (dose: 128.0 mg/kg/injection, schedule: Q01DX001 (ip), vehicle: saline with Tween-80) is 102 % of control; the T/C (dose: 128.0 mg/kg/injection, schedule: Q01DX005 (ip), vehicle: saline with Tween-80) is 101 % of control; the T/C (dose: 128.0 mg/kg/injection, schedule: Q01DX009 (ip), vehicle: saline with Tween-80) is 105 % of control; the T/C (dose: 128.0 mg/kg/injection, schedule: Q04DX003 (ip), vehicle: saline with Tween-80) was 105 % of control. The T/C reads like this: (dose: 128.0 mg/kg/injection, schedule: Q08DX002 (ip), vehicle: saline with Tween-80) 95 % of control; (dose: 256.0 mg/kg/injection, schedule: Q01DX001 (ip), vehicle: saline with Tween-80) 97 % of control; (dose: 256.0 mg/kg/injection, schedule: Q01DX009 (oral), vehicle: saline with Tween-80) 118 % of control; (dose: 256.0 mg/kg/injection, schedule: Q04DX003 (ip), vehicle: saline with Tween-80) 96 % of control; (dose: 256.0 mg/kg/injection, schedule: Q08DX002 (ip), vehicle: saline with Tween-80) 98 % of control; (dose: 300.0 mg/kg/injection, schedule: Q01DX009 (ip), vehicle: saline) 90 % of control. The T/C is, setting by setting: (dose: 512.0 mg/kg/injection, schedule: Q01DX001 (ip), vehicle: saline with Tween-80) 102 % of control; (dose: 512.0 mg/kg/injection, schedule: Q08DX002 (ip), vehicle: saline with Tween-80) 106 % of control.
Turning to `Cc1cc(Cl)ccc1OC(=O)Nc1ccccc1F`, the T/C reads like this: (dose: 100.0 mg/kg/injection, schedule: Q01DX009 (ip), vehicle: Klucel (hydroxypropylcellulose) (HPC)) 110 % of control; (dose: 200.0 mg/kg/injection, schedule: Q01DX009 (ip), vehicle: Klucel (hydroxypropylcellulose) (HPC)) 98 % of control; (dose: 400.0 mg/kg/injection, schedule: Q01DX009 (ip), vehicle: Klucel (hydroxypropylcellulose) (HPC)) 121 % of control.
On to `O=C(OCc1ccccc1CN1CCCC1)c1ccccc1`, for which the T/C is 98 % of control (dose: 25.0 mg/kg/injection, schedule: Q01DX001 (ip), vehicle: Klucel (hydroxypropylcellulose) (HPC)); 95 % of control (dose: 50.0 mg/kg/injection, schedule: Q01DX001 (ip), vehicle: Klucel (hydroxypropylcellulose) (HPC)); 98 % of control and 102 % of control (dose: 100.0 mg/kg/injection, schedule: Q01DX001 (ip), vehicle: Klucel (hydroxypropylcellulose) (HPC)).
As to `CN(C)c1ccc(C2=CC3CCCC(C2)N3C)cc1` (stereo not given), the T/C is 100 % of control (dose: 12.5 mg/kg/injection, schedule: Q04DX003 (ip), vehicle: saline) and 97 % of control (dose: 25.0 mg/kg/injection, schedule: Q04DX003 (ip), vehicle: saline).
Take `CCCC(CNC1CCCCC1)OC(=O)c1ccc(N)cc1` (stereo not given): the T/C (dose: 75.0 mg/kg/injection, schedule: Q01DX001 (ip), vehicle: other) is 96 % of control.
